According to paper PMC5939190, “The impact of O-glycan chemistry on the stability of intrinsically disordered proteins” (Chemical Science, 2018):
Residues, ends and D or L forms follow the SMILES beside them. No end group written: not given here. *: point of attachment. αMan = OC[C@H]1O[C@H](*)[C@@H](O)[C@@H](O)[C@@H]1O; X2 = OC[C@H]1O[C@H](*)[C@H](O)[C@@H](O)[C@@H]1O; X1 = OC[C@H]1O[C@H](*)[C@H](O)[C@@H](O)[C@H]1O

Assays:
thermolysin = target: T1, thermolysin (Bacillus thermoproteolyticus, UniProt P00800); assay: Thermolysin digestion of linker variants (half-life to thermolysin degradation, MALDI-TOF MS); format: in vitro ADME; conditions: for half-life: thermolysin in digestion buffer, average ± spread of three independent trials, quantitative MALDI-TOF MS; for half-life / Half-life to thermolysin degradation, Trial 1 / Half-life to thermolysin degradation, Trial 2 / Half-life to thermolysin degradation, Trial 3: thermolysin 1 µg/µL (25 µL) added to linker 2 µg/µL (25 µL), 50 mM Tris·HCl, 0.5 mM CaCl2, pH 8.0, 37 °C, aliquots 0-420 min; for half-life / Half-life to thermolysin degradation, Trial 2 / Half-life to thermolysin degradation, Trial 3: first-order exponential decay fit; for Half-life to thermolysin degradation, Trial 1: trial 1 of three independent trials, first-order exponential decay fit of full-length linker; for Half-life to thermolysin degradation, Trial 1 / Half-life to thermolysin degradation, Trial 2 / Half-life to thermolysin degradation, Trial 3: quantitative MALDI-TOF MS with internal standard; for Half-life to thermolysin degradation, Trial 2: trial 2 of three independent trials; for Half-life to thermolysin degradation, Trial 3: trial 3 of three independent trials
T1 sequence (P00800 233-548): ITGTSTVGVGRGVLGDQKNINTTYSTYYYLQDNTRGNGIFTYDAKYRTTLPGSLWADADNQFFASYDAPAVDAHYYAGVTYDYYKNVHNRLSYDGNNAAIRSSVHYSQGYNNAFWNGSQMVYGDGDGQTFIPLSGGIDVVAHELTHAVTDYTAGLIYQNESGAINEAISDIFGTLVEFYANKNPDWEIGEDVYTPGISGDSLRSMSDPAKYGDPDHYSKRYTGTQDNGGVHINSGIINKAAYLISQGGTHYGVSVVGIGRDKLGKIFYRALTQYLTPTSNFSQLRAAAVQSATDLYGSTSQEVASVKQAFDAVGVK
Source text: O-Mannosylation is strongly preferred for proteolysis protection of a model fungal IDP. To investigate how glycan identity affects IDP proteolytic stability, we employed the naturally O-mannosylated linker from the Trichoderma reesei glycoside hydrolase family 7 cellobiohydrolase, TrCel7A, as a model.[10] This enzyme is one of the most important industrial cellulases and its linker is a well-studied O-mannosylated IDP.[11]–[14] The α-anomeric configuration was chosen since it is the only type reported so far in reducing terminal mannose residues of O-mannosylated proteins from fungi and yeasts.[8] We used […] glycopeptide synthesis[12],[15],[16] to produce four variants (Fig. 1), including the non-glycosylated linker, and measured the half-life to thermolysin degradation with MALDI-TOF MS (Fig. S1–S4 ^†).[15]–[19] […]
1.1. Experimental material and equipm ent
All commercial reagents and solvents were used as received. All LC-MS analyses were performed using a Waters Acquity TM Ultra Performance LC system equipped with Acquity UPLC® BEH 300 C4, 1.7µm, 2.1 x 100 mm column at flow rates of 0.3 mL/min. The mobile phase for LC -MS analysis was a mixture of H2O (0.1% formic acid, v /v, A) and acetonitrile (0.1% formic acid, v/v, B). […]
Mass spectrometric analysis done with a Waters SYNAPT G2-S LC-MS system was us ed to confirm the identity and homogeneity of the synthetic peptides. MALDI-TOF mas s spectrometr ic analysis done with an AB/Sciex Voyager DE-STR system was used to determine the proteolytic stability (half-life to thermolysin degradation) of the synthetic peptides (Fig. S1-S4). […]
1.3. General procedure for the thermolysin digestion of linker variants The thermolysin digestions were performed following previously described procedures.2 The digestion s of glycosylated linkers were carried out at 37 °C in 25 µL of digestion buffer (50 mM Tris·HCl buffer, 0.5 mM CaCl2, pH 8.0) with an initial linker concentration of 2 µg/µL. 25 µL of thermolysin (1 µg/µL in the digestion buffer) was added to linker solution; 1 µL aliquots were taken at specific time intervals (0, […]
µL of acetonitrile/H2O/AcOH (20/20/1, v/v) and 3 µL of standard solution [0.17 µg/µL non-glycosylated linker in acetonitrile/H2O/AcOH (20/20/1, v/v)]. Each sample was analyzed by quantitative MALDI-TOF MS to calculate the change in concentration of glycosylated linkers with time. The digestion rate was determined by monitoring and fitting data to the first-order exponential decay of the full-length glycosylated linkers over time. Digestion and analysis of non-glycosylat ed linker was done exactly a s described above for glycosylated linkers except that the Lman was used as the internal standard. All the digestion processes were repeated for three independent trials.
1.4. Temperature replica exchange simulations
Model syst ems. This work compares the dynamical and structural behavior of four variants of the Cel7A linker from Trichoderma reesei (TrCel7A). This set includes the non-glycosylated linker and the linker homogeneously decorated with O-linked α-mannosyl, α-glucosyl, and α-galactosyl moieties (Fig. S9A).
Complementary simulations and analyses were also performed with the linker decorated with longer glycans comprising mannobiosyl and galactobiosyl moieties, as well as with the putative natural decoration proposed by Harrison et al.3 (Fig. S9B) . A set of four variants of the “PT linker” was also studied, including the non -glycosylated linker and the variants with the same three glycans (Fig. S9C).
Finally, we also performed simulations of tripeptides with a single site of glyco sylation, resulting in the […]

Compound	half-life (thermolysin)	Half-life to thermolysin degradation, Trial 1 (thermolysin)	Half-life to thermolysin degradation, Trial 2 (thermolysin)	Half-life to thermolysin degradation, Trial 3 (thermolysin)	enhancement of protection against proteolysis relative to non-glycosylated parent IDP	Improvement of proteolytic stability over the non-glycosylated linker LNG (thermolysin; ratio of half-lives to thermolysin degradation, relative to LNG)	Proteolysis protection over the O-galactosylated linker (Lgal) (thermolysin; ratio of half-lives to thermolysin degradation, relative to Lgal)	Proteolysis protection over the O-glucosylated linker (Lglc) (thermolysin; ratio of half-lives to thermolysin degradation, relative to Lglc)
C[C@H](NC(=O)[C@@H]1CCCN1C(=O)[C@H](CCCNC(=N)N)NC(=O)[C@H](CCCNC(=N)N)NC(=O)[C@@H](NC(=O)[C@@H](NC(=O)[C@@H](NC(=O)[C@@H](NC(=O)CNC(=O)[C@@H]1CCCN1C(=O)[C@@H]1CCCN1C(=O)[C@H](CC(N)=O)NC(=O)CNC(=O)CNC(=O)[C@@H]1CCCN1C(=O)[C@@H]1CCCN1C(=O)[C@H](CC(N)=O)NC(=O)CN)[C@@H](C)O[C@H]1O[C@H](CO)[C@H](O)[C@H](O)[C@H]1O)[C@@H](C)O[C@H]1O[C@H](CO)[C@H](O)[C@H](O)[C@H]1O)[C@@H](C)O[C@H]1O[C@H](CO)[C@H](O)[C@H](O)[C@H]1O)[C@@H](C)O[C@H]1O[C@H](CO)[C@H](O)[C@H](O)[C@H]1O)C(=O)N[C@H](C(=O)N[C@H](C(=O)N[C@H](C(=O)NCC(=O)N[C@@H](CO[C@H]1O[C@H](CO)[C@H](O)[C@H](O)[C@H]1O)C(=O)N[C@@H](CO[C@H]1O[C@H](CO)[C@H](O)[C@H](O)[C@H]1O)C(=O)N1CCC[C@H]1C(=O)NCC(=O)N1CCC[C@H]1C(=O)O)[C@@H](C)O[C@H]1O[C@H](CO)[C@H](O)[C@H](O)[C@H]1O)[C@@H](C)O[C@H]1O[C@H](CO)[C@H](O)[C@H](O)[C@H]1O)[C@@H](C)O[C@H]1O[C@H](CO)[C@H](O)[C@H](O)[C@H]1O [Lgal] (H-GNPPGGNPPGT(X1)T(X1)T(X1)T(X1)RRPAT(X1)T(X1)T(X1)GS(X1)S(X1)PGP-OH; N-terminus and C-terminus assumed)	9.8 ± 2 min	8.5 min	8.8 min	12.1 min	10 fold	–	–	–
C[C@H](NC(=O)[C@@H]1CCCN1C(=O)[C@H](CCCNC(=N)N)NC(=O)[C@H](CCCNC(=N)N)NC(=O)[C@@H](NC(=O)[C@@H](NC(=O)[C@@H](NC(=O)[C@@H](NC(=O)CNC(=O)[C@@H]1CCCN1C(=O)[C@@H]1CCCN1C(=O)[C@H](CC(N)=O)NC(=O)CNC(=O)CNC(=O)[C@@H]1CCCN1C(=O)[C@@H]1CCCN1C(=O)[C@H](CC(N)=O)NC(=O)CN)[C@@H](C)O[C@H]1O[C@H](CO)[C@@H](O)[C@H](O)[C@H]1O)[C@@H](C)O[C@H]1O[C@H](CO)[C@@H](O)[C@H](O)[C@H]1O)[C@@H](C)O[C@H]1O[C@H](CO)[C@@H](O)[C@H](O)[C@H]1O)[C@@H](C)O[C@H]1O[C@H](CO)[C@@H](O)[C@H](O)[C@H]1O)C(=O)N[C@H](C(=O)N[C@H](C(=O)N[C@H](C(=O)NCC(=O)N[C@@H](CO[C@H]1O[C@H](CO)[C@@H](O)[C@H](O)[C@H]1O)C(=O)N[C@@H](CO[C@H]1O[C@H](CO)[C@@H](O)[C@H](O)[C@H]1O)C(=O)N1CCC[C@H]1C(=O)NCC(=O)N1CCC[C@H]1C(=O)O)[C@@H](C)O[C@H]1O[C@H](CO)[C@@H](O)[C@H](O)[C@H]1O)[C@@H](C)O[C@H]1O[C@H](CO)[C@@H](O)[C@H](O)[C@H]1O)[C@@H](C)O[C@H]1O[C@H](CO)[C@@H](O)[C@H](O)[C@H]1O [Lglc] (H-GNPPGGNPPGT(X2)T(X2)T(X2)T(X2)RRPAT(X2)T(X2)T(X2)GS(X2)S(X2)PGP-OH; N-terminus and C-terminus assumed)	53.7 ± 8.1 min	53.3 min	62.0 min	45.9 min	–	–	–	–
C[C@H](NC(=O)[C@@H]1CCCN1C(=O)[C@H](CCCNC(=N)N)NC(=O)[C@H](CCCNC(=N)N)NC(=O)[C@@H](NC(=O)[C@@H](NC(=O)[C@@H](NC(=O)[C@@H](NC(=O)CNC(=O)[C@@H]1CCCN1C(=O)[C@@H]1CCCN1C(=O)[C@H](CC(N)=O)NC(=O)CNC(=O)CNC(=O)[C@@H]1CCCN1C(=O)[C@@H]1CCCN1C(=O)[C@H](CC(N)=O)NC(=O)CN)[C@@H](C)O[C@H]1O[C@H](CO)[C@@H](O)[C@H](O)[C@@H]1O)[C@@H](C)O[C@H]1O[C@H](CO)[C@@H](O)[C@H](O)[C@@H]1O)[C@@H](C)O[C@H]1O[C@H](CO)[C@@H](O)[C@H](O)[C@@H]1O)[C@@H](C)O[C@H]1O[C@H](CO)[C@@H](O)[C@H](O)[C@@H]1O)C(=O)N[C@H](C(=O)N[C@H](C(=O)N[C@H](C(=O)NCC(=O)N[C@@H](CO[C@H]1O[C@H](CO)[C@@H](O)[C@H](O)[C@@H]1O)C(=O)N[C@@H](CO[C@H]1O[C@H](CO)[C@@H](O)[C@H](O)[C@@H]1O)C(=O)N1CCC[C@H]1C(=O)NCC(=O)N1CCC[C@H]1C(=O)O)[C@@H](C)O[C@H]1O[C@H](CO)[C@@H](O)[C@H](O)[C@@H]1O)[C@@H](C)O[C@H]1O[C@H](CO)[C@@H](O)[C@H](O)[C@@H]1O)[C@@H](C)O[C@H]1O[C@H](CO)[C@@H](O)[C@H](O)[C@@H]1O [Lman] (H-GNPPGGNPPGT(αMan)T(αMan)T(αMan)T(αMan)RRPAT(αMan)T(αMan)T(αMan)GS(αMan)S(αMan)PGP-OH; N-terminus and C-terminus assumed)	164 ± 32.9 min	163.9 min	196.4 min	130.5 min	–	112 fold	16 fold	3 fold
GNPPGGNPPGTTTTRRPATTTGSSPGP-OH [LNG]	1.5 ± 0.2 min	1.6 min	1.5 min	1.2 min	–	–	–	–
